Tests used:
Test in all cases: Test D pre-/postemergence plant response
Type in all cases: in vivo
[1] = system: morningglory (Ipomoea coccinea)
Outline: (§1)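 0 = no effect, 100 = complete control: plants were scored this way by visual comparison with controls 13 to 15 days post-treatment. Application was preemergence to sown loam/sand pots or postemergence to 2–18 cm seedlings in peat-based mix.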

[2] = system: pigweed (Amaranthus retroflexus)
Outline: as §1

[3] = system: large (Lg) crabgrass (Digitaria sanguinalis)
Outline: as §1

[4] = system: waterhemp (common waterhemp, Amaranthus rudis)
Outline: as §1

[5] = system: johnsongrass (Sorghum halepense)
Outline: as §1

[6] = system: giant foxtail (Setaria faberii)
Outline: as §1

[7] = system: soybean (Glycine max)
Outline: as §1

[8] = system: winter wheat (Triticum aestivum)
Outline: as §1

[9] = system: yellow nutsedge (Cyperus esculentus)
Outline: as §1

[10] = system: corn (Zea mays)
Outline: as §1

[11] = system: galium (catchweed bedstraw, Galium aparine)
Outline: as §1

[12] = system: lambsquarters (Chenopodium album)
Outline: as §1

[13] = system: oilseed rape (Brassica napus)
Outline: as §1

[14] = system: Italian ryegrass (Lolium multiflorum)
Outline: as §1

[15] = system: barnyardgrass (Echinochloa crus-galli)
Outline: as §1

[16] = system: blackgrass (Alopecurus myosuroides)
Outline: as §1

[17] = system: velvetleaf (Abutilon theophrasti)
Outline: as §1

[18] = system: ragweed (common ragweed, Ambrosia elatior)
Outline: as §1

[19] = Postemergence, 16 g ai/ha, scale 0 to 100 (0 no effect, 100 complete control)
[20] = Postemergence, 31 g ai/ha, scale 0 to 100 (0 no effect, 100 complete control)
[21] = Postemergence, 62 g ai/ha, scale 0 to 100, 0 no effect, 100 complete control
[22] = Postemergence, 125 g ai/ha, scale 0 to 100, 0 no effect, 100 complete control
[23] = Preemergence, 16 g ai/ha, scale 0 to 100 (0 no effect, 100 complete control)
[24] = Preemergence, 31 g ai/ha, scale 0 to 100 (0 no effect, 100 complete control)
[25] = Preemergence, 62 g ai/ha, scale 0 to 100 (0 no effect, 100 complete control)

Fc1ccc(Oc2ncc(Cl)cn2)c(-c2cc(C(F)F)on2)c1Cl [Compound 96]
Morningglory plant response rating [1, 19]: 85
Morningglory plant response rating [1, 20]: 40
Plant response rating, Morningglory [1, 21]: 40
Plant response rating, Morningglory [1, 22]: 30
Pigweed plant response rating [2, 19]: 98
Pigweed plant response rating [2, 20]: 95
Plant response rating, Pigweed [2, 21]: 98
Plant response rating, Pigweed [2, 22]: 98
Crabgrass, Large plant response rating [3, 19]: 5
Crabgrass, Large plant response rating [3, 20]: 5
Plant response rating, Crabgrass, Large [3, 21]: 5
Plant response rating, Crabgrass, Large [3, 22]: 10
Waterhemp plant response rating [4, 19]: 85
Waterhemp plant response rating [4, 20]: 95
Plant response rating, Waterhemp [4, 21]: 98
Plant response rating, Waterhemp [4, 22]: 100
Johnsongrass plant response rating [5, 19]: 0
Johnsongrass plant response rating [5, 20]: 0
Plant response rating, Johnsongrass [5, 21]: 5
Plant response rating, Johnsongrass [5, 22]: 10
Foxtail, Giant plant response rating [6, 19]: 0
Foxtail, Giant plant response rating [6, 20]: 5
Plant response rating, Foxtail, Giant [6, 21]: 10
Plant response rating, Foxtail, Giant [6, 22]: 10
Soybean plant response rating [7, 19]: 15
Soybean plant response rating [7, 20]: 50
Plant response rating, Soybean [7, 21]: 55
Plant response rating, Soybean [7, 22]: 35
Wheat plant response rating [8, 19]: 0
Wheat plant response rating [8, 20]: 0
Plant response rating, Wheat [8, 21]: 0
Plant response rating, Wheat [8, 22]: 10
Nutsedge, Yellow plant response rating [9, 19]: 0
Nutsedge, Yellow plant response rating [9, 20]: 5
Plant response rating, Nutsedge, Yellow [9, 21]: 5
Plant response rating, Nutsedge, Yellow [9, 22]: 5
Corn plant response rating [10, 19]: 5
Corn plant response rating [10, 20]: 15
Plant response rating, Corn [10, 21]: 5
Plant response rating, Corn [10, 22]: 5
Galium plant response rating [11, 19]: 70
Galium plant response rating [11, 20]: 90
Plant response rating, Galium [11, 21]: 80
Plant response rating, Galium [11, 22]: 98
Lambsquarters plant response rating [12, 19]: 65
Lambsquarters plant response rating [12, 20]: 65
Plant response rating, Lambsquarters [12, 21]: 90
Plant response rating, Lambsquarters [12, 22]: 95
Oilseed Rape plant response rating [13, 19]: 40
Oilseed Rape plant response rating [13, 20]: 45
Plant response rating, Oilseed Rape [13, 21]: 65
Plant response rating, Oilseed Rape [13, 22]: 65
Ryegrass, Italian plant response rating [14, 19]: 0
Ryegrass, Italian plant response rating [14, 20]: 5
Plant response rating, Ryegrass, Italian [14, 21]: 10
Plant response rating, Ryegrass, Italian [14, 22]: 10
Barnyardgrass plant response rating [15, 19]: 0
Barnyardgrass plant response rating [15, 20]: 0
Plant response rating, Barnyardgrass [15, 21]: 5
Plant response rating, Barnyardgrass [15, 22]: 5
Blackgrass plant response rating [16, 19]: 0
Blackgrass plant response rating [16, 20]: 10
Plant response rating, Blackgrass [16, 21]: 10
Plant response rating, Blackgrass [16, 22]: 20
Velvetleaf plant response rating [17, 19]: 20
Velvetleaf plant response rating [17, 20]: 35
Plant response rating, Velvetleaf [17, 21]: 35
Plant response rating, Velvetleaf [17, 22]: 35
Ragweed plant response rating [18, 19]: 0
Ragweed plant response rating [18, 20]: 10
Plant response rating, Ragweed [18, 21]: 10
Plant response rating, Ragweed [18, 22]: 40

COc1cccc(Oc2ncc(Cl)cn2)c1-c1cc(C(F)(F)F)no1 [Compound 104]
Plant response rating (scale 0 to 100), Morningglory ([1]; Preemergence, 125 g ai/ha): 25
Plant response rating, Morningglory [1, 23]: 5
Plant response rating, Morningglory [1, 24]: 5
Plant response rating, Morningglory [1, 25]: 25
Plant response rating (scale 0 to 100), Pigweed ([2]; Preemergence, 125 g ai/ha): 100
Plant response rating, Pigweed [2, 23]: 100
Plant response rating, Pigweed [2, 24]: 100
Plant response rating, Pigweed [2, 25]: 100
Plant response rating (scale 0 to 100), Crabgrass, Large ([3]; Preemergence, 125 g ai/ha): 100
Plant response rating, Crabgrass, Large [3, 23]: 65
Plant response rating, Crabgrass, Large [3, 24]: 85
Plant response rating, Crabgrass, Large [3, 25]: 98
Plant response rating (scale 0 to 100), Waterhemp ([4]; Preemergence, 125 g ai/ha): 100
Plant response rating, Waterhemp [4, 23]: 100
Plant response rating, Waterhemp [4, 24]: 100
Plant response rating, Waterhemp [4, 25]: 100
Plant response rating (scale 0 to 100), Johnsongrass ([5]; Preemergence, 125 g ai/ha): 65
Plant response rating, Johnsongrass [5, 23]: 5
Plant response rating, Johnsongrass [5, 24]: 20
Plant response rating, Johnsongrass [5, 25]: 15
Plant response rating (scale 0 to 100), Foxtail, Giant ([6]; Preemergence, 125 g ai/ha): 100
Plant response rating, Foxtail, Giant [6, 23]: 30
Plant response rating, Foxtail, Giant [6, 24]: 80
Plant response rating, Foxtail, Giant [6, 25]: 90
Plant response rating (scale 0 to 100), Soybean ([7]; Preemergence, 125 g ai/ha): 25
Plant response rating, Soybean [7, 23]: 10
Plant response rating, Soybean [7, 24]: 20
Plant response rating, Soybean [7, 25]: 25
Plant response rating (scale 0 to 100), Wheat ([8]; Preemergence, 125 g ai/ha): 5
Plant response rating, Wheat [8, 23]: 0
Plant response rating, Wheat [8, 24]: 0
Plant response rating, Wheat [8, 25]: 5
Plant response rating (scale 0 to 100), Nutsedge, Yellow ([9]; Preemergence, 125 g ai/ha): 0
Plant response rating, Nutsedge, Yellow [9, 23]: 0
Plant response rating, Nutsedge, Yellow [9, 24]: 0
Plant response rating, Nutsedge, Yellow [9, 25]: 0
Plant response rating (scale 0 to 100), Corn ([10]; Preemergence, 125 g ai/ha): 0
Plant response rating, Corn [10, 23]: 0
Plant response rating, Corn [10, 24]: 0
Plant response rating, Corn [10, 25]: 0
Plant response rating (scale 0 to 100), Galium ([11]; Preemergence, 125 g ai/ha): 70
Plant response rating, Galium [11, 23]: 90
Plant response rating, Galium [11, 24]: 80
Plant response rating, Galium [11, 25]: 75
Plant response rating (scale 0 to 100), Lambsquarters ([12]; Preemergence, 125 g ai/ha): 90
Plant response rating, Lambsquarters [12, 23]: 65
Plant response rating, Lambsquarters [12, 24]: 80
Plant response rating, Lambsquarters [12, 25]: 90
Plant response rating (scale 0 to 100), Oilseed Rape ([13]; Preemergence, 125 g ai/ha): 50
Plant response rating, Oilseed Rape [13, 23]: 0
Plant response rating, Oilseed Rape [13, 24]: 0
Plant response rating, Oilseed Rape [13, 25]: 30
Plant response rating (scale 0 to 100), Ryegrass, Italian ([14]; Preemergence, 125 g ai/ha): 5
Plant response rating, Ryegrass, Italian [14, 23]: 0
Plant response rating, Ryegrass, Italian [14, 24]: 0
Plant response rating, Ryegrass, Italian [14, 25]: 0
Plant response rating (scale 0 to 100), Barnyardgrass ([15]; Preemergence, 62 g ai/ha): 25
Plant response rating (scale 0 to 100), Barnyardgrass ([15]; Preemergence, 125 g ai/ha): 70
Plant response rating, Barnyardgrass [15, 23]: 0
Plant response rating, Barnyardgrass [15, 24]: 10
Plant response rating (scale 0 to 100), Blackgrass ([16]; Preemergence, 125 g ai/ha): 30
Plant response rating, Blackgrass [16, 23]: 0
Plant response rating, Blackgrass [16, 24]: 0
Plant response rating, Blackgrass [16, 25]: 0
Plant response rating (scale 0 to 100), Velvetleaf ([17]; Preemergence, 125 g ai/ha): 65
Plant response rating, Velvetleaf [17, 23]: 25
Plant response rating, Velvetleaf [17, 24]: 50
Plant response rating, Velvetleaf [17, 25]: 70
Plant response rating (scale 0 to 100), Ragweed ([18]; Preemergence, 125 g ai/ha): 60
Plant response rating, Ragweed [18, 23]: 40
Plant response rating, Ragweed [18, 24]: 25
Plant response rating, Ragweed [18, 25]: 55
